Measured values: a melting point compilation (Tetko et al.; mined from patent text by program, amines drawn as free bases though some values may be those of a salt)

Row | Structure (SMILES) | melting point [°C]
1 | CC1CCN(CCNc2nn3cnnc3c3c2CCCC3)CC1 | 180 to 181
2 | O=C(O)CNC(=O)CBr | 90 to 91
3 | Cc1cccc(C(O)c2ccc(N)cc2)n1 (stereo not given) | 165 to 166
4 | COc1cc(Cl)c([N+](=O)[O-])cc1OC | 103 to 105
5 | CCn1cc(C(=O)O)c(=O)c2c(F)c(F)c(N3CCSCC3)c(F)c21 | 308 to 310
6 | CC(C)(C)c1ccc(Nc2cccc(Br)n2)c(N)c1 | 125 to 128
7 | CN1CCNC1=Nc1ccccc1N1CCOCC1 | 156
8 | CS(=O)(=O)Nc1ccc(CC(=O)O)cc1 | 145 to 147
9 | Nc1ccc(C(=O)NCCNC(=O)c2ccc(N)cc2)cc1 | 294 to 295
10 | CCOC(=O)C1=C(C)NC(C)=C(C(=O)OCCN2CCN(C(c3ccc(C)cc3)c3ccc(C)cc3)CC2)C1c1cccc(C(F)(F)F)c1 (stereo not given) | 74 to 77
11 | CCN(CC)C(=O)CN1C(=O)C(NC(=O)Nc2cccc(OC)c2)N=C(c2ccccc2)c2ccccc21 (stereo not given) | 222 to 224
12 | Cc1nc(S(=O)(=O)Cc2ccc(Cl)cc2)nc2c1CCCC2 | 151
13 | COc1cc(C2=C(C(C)(C)C)C(C)(C)CO2)cc2oc(-c3ccccc3)nc12 | 68.5 to 69
14 | COc1ccc(-c2cc(=S)n(C)c(=O)[nH]2)cc1OC | 247 to 249
15 | CCOC(=O)c1cn(-c2nnc(C)s2)c2nc(Cl)c(F)cc2c1=O | 159 to 162
16 | O=C(N[C@H]1CC[C@H](CCN2CCC(c3cccc4c3CCO4)CC2)CC1)c1ccc(N2CCCCC2)cc1 | 248
17 | CCCOc1ccccc1-c1nc(O)cc(C#N)n1 | 135 to 136
18 | Cc1cc(Br)c2[nH]c(=O)n(CCCN3CC=C(c4ccc(Cl)cc4)CC3)c(=O)c2c1 | 212 to 214
19 | CN1C(=O)Cc2cc(CCCl)ccc21 | 136
20 | O=C(Nc1ncc(C(F)(F)F)o1)C1c2ccc(F)cc2Oc2cc(F)ccc21 | 249
21 | C=Cc1cn(-c2c(Cl)cc(C(F)(F)F)cc2Cl)nc1C(F)(F)F | 95 to 98

Row | Structure (SMILES) | melting point [°C]
22 | COc1ncnc(-c2cc(N)c(C#N)cc2F)c1Cl | 186 to 189
23 | COC(=O)c1ccc2nc(Sc3nnc(C)s3)c(C(F)(F)F)nc2c1 | 151 to 152
24 | COC(=O)CCCc1nc2c([nH]1)c(=O)n(C)c(=O)n2C | 200 to 204
25 | CCOC(=O)C1=C(COCc2nc(CCN)cs2)NC(C)=C(C(=O)OC)C1c1cccc(Cl)c1Cl (stereo not given) | 110 to 112
26 | BrCCCSc1ccc2ncnn2n1 | 133 to 135
27 | CN(C)C1CCN(c2cc3ccc(Br)cc3c(=O)[nH]2)CC1 | 227 to 228
28 | CNC(=O)N1CC(Oc2ccc(Br)cc2)C1 | 135 to 137
29 | CC(C)(C)OC(=O)c1ccc(CBr)cc1 | 53.4
30 | CN1C(=O)[C@H](NC(=O)/C=C/c2ccc(Br)cc2)N=C(c2ccccc2)c2ccccc21 | 121 to 124
31 | COc1cc(OC)nc(Sc2sccc2NS(=O)(=O)C(F)(F)F)n1 | 103 to 104
32 | CCCCNC(=S)Nc1nc2ccc(OC(F)(F)F)cc2s1 | 211
33 | COC1C(OC(=O)N2CCOCC2)CCC2(CO2)C1C1(C)OC1CCOCc1ccccc1 (stereo not given) | 96 to 97
34 | O=C1COCC2=C1C(c1ccc(F)c(Br)c1)C1=C(CCS1(=O)=O)N2 (stereo not given) | > 260
35 | CC(C)(CO)c1cc(C#N)ccc1O | 129 to 130
36 | CNC(=O)NCCn1c(-c2ccc(CN3C(C)COCC3C)cc2)csc1=Nc1ccc(F)c(C)c1 (stereo not given) | 116 to 119
37 | CN(C1CCN(c2ncc3ncnc(Nc4ccc(F)c(Cl)c4)c3n2)CC1)S(C)(=O)=O | 225 to 227
38 | CCC(CC)Nc1c(N)cc(C)c(C)c1[N+](=O)[O-] | 80 to 82
39 | O=C(Nc1cc(CN2CCOCC2)c(O)c(CN2CCOCC2)c1)c1ccccc1 | 152 to 154
40 | O=C1NC(=O)C2(CCc3cc(F)ccc32)N1 (racemic) | > 260
41 | CCOc1nsc(NC(=O)N(C)C)c1C#N | 204 to 205
42 | O=S(=O)(c1ccc(Cl)cc1)N1CCCC1c1ccc(F)cc1 (racemic) | 118

Row | Structure (SMILES) | melting point [°C]
43 | CC(C)(CN)Cc1ccc(-c2ccc(CC(C)(C)CN)cc2)cc1 | 97 to 99
44 | CCCN1CCCCC1C(=O)Nc1c(C)cccc1C (stereo not given) | 142 to 145
45 | NC(=O)N1CCN(CC(=O)N2CCOCC2)CC1 | 165
46 | CCOC(=O)/C(=N\OC1(C)CCCCC1)c1csc(N)n1 | 126
47 | Fc1c(F)c(F)c(C(Cl)=NNc2ccccc2)c(F)c1F | 117 to 118
48 | CC(=O)OCC(=O)C1(O)C(C)CC2C3CCC4=CC(=O)CCC4(C)C3C(=O)CC21C (stereo not given) | 214 to 219
49 | Cc1nc(Cl)c2c(n1)c(C)nn2C | 91 to 93
50 | CCCCCCCCCCCCS(=O)(=O)c1c(O)cc(C)oc1=O | 78 to 79
51 | CS(=O)(=O)Oc1ccccc1S(=O)(=O)Cl | 94 to 95
52 | CCOC(=O)C1=Cc2cc(C(F)(F)F)ccc2NC1C(F)(F)F (stereo not given) | 138 to 139
53 | CC1(C)Cc2c(cc(C(C)(C)C)c(O)c2C(C)(C)C)S1 | 79
54 | CC(C(=O)O)c1ccc2c(c1)CC(C(C)C)C2 (stereo not given) | 90 to 91.5
55 | CN1Cc2c(C=O)ncn2-c2cccc(Cl)c2C1=O | 204 to 205
56 | COc1ccc(-c2cc(C(F)(F)F)nn2-c2ccc(S(N)(=O)=O)c(F)c2)cc1 | 130 to 131
57 | CCCCCC1(C=Cc2ccc(C(=O)O)cc2)CC2=C(C1)C(C)(C)CCC2(C)C | 121 to 123
58 | Clc1ccc(OCC2COC(CBr)(c3ccc(Cl)cc3)O2)cc1 (stereo not given) | 165
59 | c1ccc(-c2nn3c(c2-c2nc4ncccc4o2)CCC3)nc1 | 182 to 184
60 | CC(=O)OC[C@@](O)(c1ccc(F)cc1F)[C@H](C)c1ccncn1 | 102 to 104
61 | CC(C)(C)C(=O)NNc1cc(F)c(C#N)cc1F | 167

Results, then the compound that gave them:

Row | melting point [°C] | Structure (SMILES)
62 | 105 to 107 | O=C(Oc1ccccc1)N1CCC2(CC1)c1ccccc1Oc1ccccc12
63 | 261 to 262 | Cc1cc(N2CCN(c3ccncc3)CC2)ccc1OCCCC(=O)O
64 | 89 to 92 | CCSc1cc(-c2ccc(Cl)cc2Cl)ccc1C#N
65 | 95 to 96 | CN(C)Cc1c(O)ccc2cc(Br)ccc12
66 | 104 to 105 | CC(C)CCn1c(=O)c(=NNc2ccccc2)c(=O)n(-c2ccccc2F)c2ccccc21
67 | 156 to 158 | COc1ccnc2c1c(C(C)=O)cn2S(=O)(=O)c1ccccc1
68 | 175 to 177 | CN1c2ccccc2N(C(=O)CN2CCCC2)c2ccccc2S1(=O)=O
69 | 68 | O=C(NC/C=C/c1ccccc1)c1ccccc1F
70 | 103 to 105 | CC(C)CCSc1cccc(-c2nc(=O)c3ccccc3s2)n1
71 | 122 to 124 | CN(NC(=O)c1ccccc1C(=O)O)c1nc(-c2ccccc2)cs1
72 | 291 | COc1ccc(-c2[nH]nc3c2C(=O)c2c(NC(=O)CN4CCCCC4)cccc2-3)cc1
73 | 154 | CCOC(=O)CCC1Cn2c(-c3ccc(OC)cc3)c(C)c3cccc(c32)O1 (stereo not given)
74 | 147 to 148 | COc1cc(OCc2nc(-c3ccco3)oc2C)ccc1COc1nn(Cc2ccccc2)cc1C=O
75 | 183 to 185 | COc1ccc(OS(=O)(=O)c2ccc(N3CCN(C)C3=O)cc2)cc1
76 | 161 to 162 | O=C(O)c1cc(=O)c2cccc(/C=C/c3ccc(OCCCCc4ccc(F)cc4)cc3)c2o1
77 | 214 to 216 | O=C(Cc1c(-c2cccnc2)c2cc(CN3CCN(c4ccccc4)CC3)c(Cl)cc2oc1=O)Nc1ccc(Cl)cc1C(F)(F)F
78 | 86 to 89 | ClCc1ccc(-c2nsc3ccccc23)cc1
79 | 133 to 135 | CCOC(=O)c1ccc(-c2nc(COc3ccc(COc4nn(-c5ccccc5)cc4/C=C\c4csc(CC)n4)cc3OC)c(C)o2)o1
80 | 140 | CNC(=O)C(C)c1ccc2c(c1)CCc1ccccc1C2=O (stereo not given)
81 | 222 to 224 | COc1ccc(-c2cc(C(=O)O)c(=O)n(Cc3ccc(F)cc3)n2)cc1F

Row | melting point [°C] | Structure (SMILES)
82 | 193 to 196 | O=[N+]([O-])c1ccc(O)c(C(=NO)c2ccccc2)c1
83 | 144 to 145 | Cn1cc(Oc2ccccc2)c(=O)c(-c2cccc(C(F)(F)F)c2)c1
84 | 135 to 137 | CCCOc1ccc(Br)cc1CN(CC)c1ccc(C(=O)O)nn1
85 | 212 | CCOC(=O)c1cnc2c3ccc(OC)cc3ccn2c1=O
86 | 186 to 187 | COc1cn(-c2cc(-n3cccn3)ccc2F)nc(-c2ccnn2-c2ccccc2)c1=O
87 | 143 to 145 | O=C(c1ccc([N+](=O)[O-])cc1Cl)N1CCCCc2ncccc21
88 | 195 to 196 | COC(=O)c1cc(-c2nc(COc3ccc(COc4nn(-c5ccccc5)cc4C=O)cc3OC)c(C)o2)ccc1C
89 | 227 to 229 | COc1cccc(N2C(c3ccccc3Cl)=NS(=O)(=O)c3cnccc32)c1
90 | > 250 | CS(=O)(=O)Nc1cc2occ(C(N)=O)c(=O)c2cc1Oc1ccccc1
91 | 108 to 110 | Cc1noc(C)c1Cn1cc(NC(=O)[C@@H](C)c2ccccc2)cn1
92 | 124 to 133 | CCCNC(=O)CCCCOc1ccc2c(c1)CCCN2C1CC(C)N(C(=O)c2cc(OC)c(OC)c(OC)c2)c2ccccc21 (stereo not given)
93 | 200 to 201 | CN(C(=O)Nc1ccc(F)cc1F)c1cnc2ccc(Cl)cc2c1-c1ccccc1
94 | 208 to 210 | CCNC(=O)Nc1ccc(-c2sc3c(c2CN(C)C(C)C)c(=O)n(-c2ccccc2)c(=O)n3Cc2c(F)cccc2F)cc1
95 | 257 to 260 | O=C1NCc2c1cc1ccc3c(c1c2-c1cccnc1)OCO3
96 | 230 | COc1ccc(N2CCN(c3ccc(-n4c(C)nn(CC(=O)c5ccc(Cl)cc5)c4=O)cc3)CC2)cc1
97 | 236 to 238 | O=C(Nc1ccc(C(CC2CCCC2)C(=O)Nc2nccs2)cc1)c1ccc([N+](=O)[O-])cc1 (stereo not given)
98 | 178 to 183 | NC(=O)Cc1ccccc1Cn1ccc(OCc2ccc(F)cc2F)c(Br)c1=O
99 | 172 to 174 | COc1cc(NC(=O)c2cc3cc(F)ccc3n2Cc2cccc(F)c2)cnc1N1CCCC1
100 | 85 to 87 | CN(C)c1cccc(Oc2ncccc2C(=O)NCc2ccccc2Cl)c1
